Laboratory results reported in ChEMBL document CHEMBL4699401, “Argininamide-type neuropeptide Y Y1 receptor antagonists: the nature of Nomega-carbamoyl substituents determines Y1R binding mode and affinity” (RSC Med Chem, 2020).

Biological target: T1, Neuropeptide Y receptor type 1 (Homo sapiens, UniProt P25929)
T1 sequence (P25929 whole entry): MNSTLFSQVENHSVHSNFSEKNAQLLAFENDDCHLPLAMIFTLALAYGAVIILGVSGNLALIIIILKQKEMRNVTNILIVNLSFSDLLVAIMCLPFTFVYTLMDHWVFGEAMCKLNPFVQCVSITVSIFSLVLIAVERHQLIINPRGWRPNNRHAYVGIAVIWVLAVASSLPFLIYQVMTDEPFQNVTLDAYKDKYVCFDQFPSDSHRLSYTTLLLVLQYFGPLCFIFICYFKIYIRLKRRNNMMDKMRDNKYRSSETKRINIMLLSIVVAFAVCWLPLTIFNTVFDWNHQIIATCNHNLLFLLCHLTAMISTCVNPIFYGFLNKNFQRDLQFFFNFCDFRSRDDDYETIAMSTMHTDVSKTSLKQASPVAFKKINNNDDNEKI
Assay: Displacement of [3H]UR-MK299 from Y1 receptor in human SK-N-MC cells by radioligand binding assay
Format: cell-based
Settings: not given

Ki | SMILES
56.2 nM | N/C(=N/C(=O)NCCNC(=O)c1ccccc1)NCCC[C@@H](NC(=O)C(c1ccccc1)c1ccccc1)C(=O)NCc1ccc(O)cc1
302 nM | N/C(=N/C(=O)NCCNC(=O)Cc1ccccc1)NCCC[C@@H](NC(=O)C(c1ccccc1)c1ccccc1)C(=O)NCc1ccc(O)cc1
45.7 nM | CC(C)(C)C(=O)NCCNC(=O)/N=C(/N)NCCC[C@@H](NC(=O)C(c1ccccc1)c1ccccc1)C(=O)NCc1ccc(O)cc1
0.0525 nM | N/C(=N/C(=O)NCCNC(=O)CCl)NCCC[C@@H](NC(=O)C(c1ccccc1)c1ccccc1)C(=O)NCc1ccc(O)cc1
0.145 nM | N/C(=N/C(=O)NCCNC(=O)CO)NCCC[C@@H](NC(=O)C(c1ccccc1)c1ccccc1)C(=O)NCc1ccc(O)cc1
1.1 nM | N/C(=N/C(=O)NCCNC(=O)C1CCC1)NCCC[C@@H](NC(=O)C(c1ccccc1)c1ccccc1)C(=O)NCc1ccc(O)cc1
295 nM | N/C(=N/C(=O)NCCNC(=O)C(c1ccccc1)c1ccccc1)NCCC[C@@H](NC(=O)C(c1ccccc1)c1ccccc1)C(=O)NCc1ccc(O)cc1
0.0589 nM | CC(=O)NCCNC(=O)/N=C(/N)NCCC[C@@H](NC(=O)C(c1ccccc1)c1ccccc1)C(=O)NCc1ccc(O)cc1
1.17 nM | N/C(=N/C(=O)NCCNC(=O)C1CC1)NCCC[C@@H](NC(=O)C(c1ccccc1)c1ccccc1)C(=O)NCc1ccc(O)cc1
380 nM | N/C(=N/C(=O)NCCNC(=O)C1CCCCC1)NCCC[C@@H](NC(=O)C(c1ccccc1)c1ccccc1)C(=O)NCc1ccc(O)cc1
0.0741 nM | CCC(=O)NCCCNC(=O)/N=C(/N)NCCC[C@@H](NC(=O)C(c1ccccc1)c1ccccc1)C(=O)NCc1ccc(O)cc1
102 nM | Cc1cc(/C=C/C=C/c2ccc(N(C)C)cc2)cc(C)[n+]1CCNC(=O)/N=C(/N)NCCC[C@@H](NC(=O)C(c1ccccc1)c1ccccc1)C(=O)NCc1ccc(O)cc1
0.126 nM | N/C(=N/C(=O)NCCNC(=O)CBr)NCCC[C@@H](NC(=O)C(c1ccccc1)c1ccccc1)C(=O)NCc1ccc(O)cc1
0.0631 nM | CC(=O)NCCCNC(=O)/N=C(/N)NCCC[C@@H](NC(=O)C(c1ccccc1)c1ccccc1)C(=O)NCc1ccc(O)cc1
0.112 nM | C=CC(=O)NCCNC(=O)/N=C(/N)NCCC[C@@H](NC(=O)C(c1ccccc1)c1ccccc1)C(=O)NCc1ccc(O)cc1
295 nM | N/C(=N/C(=O)NCCNC(=O)c1ccc(F)cc1)NCCC[C@@H](NC(=O)C(c1ccccc1)c1ccccc1)C(=O)NCc1ccc(O)cc1
52.5 nM | N/C(=N/C(=O)NCCNC(=O)C1CCCC1)NCCC[C@@H](NC(=O)C(c1ccccc1)c1ccccc1)C(=O)NCc1ccc(O)cc1
0.38 nM | N/C(=N/C(=O)NCCNC(=O)CCCl)NCCC[C@@H](NC(=O)C(c1ccccc1)c1ccccc1)C(=O)NCc1ccc(O)cc1
0.309 nM | CC(C)C(=O)NCCNC(=O)/N=C(/N)NCCC[C@@H](NC(=O)C(c1ccccc1)c1ccccc1)C(=O)NCc1ccc(O)cc1
0.0676 nM | N/C(=N/C(=O)NCCNC(=O)C(F)F)NCCC[C@@H](NC(=O)C(c1ccccc1)c1ccccc1)C(=O)NCc1ccc(O)cc1
0.0708 nM | N/C(=N/C(=O)NCCNC(=O)C(F)(F)F)NCCC[C@@H](NC(=O)C(c1ccccc1)c1ccccc1)C(=O)NCc1ccc(O)cc1

SMILES | Ki
N/C(=N/C(=O)NCCNC(=O)CF)NCCC[C@@H](NC(=O)C(c1ccccc1)c1ccccc1)C(=O)NCc1ccc(O)cc1 | 0.0316 nM

Biological target: T1, Neuropeptide Y receptor type 1
Assay: Antagonist activity at Y1 receptor in human HEL cells assessed as reduction in pNPY-induced calcium mobilization preincubated for 15 mins followed by pNPY stimulation and measured immediately by Fura-2 dye based fluorescence assay
Format: functional, cell-based
Settings: not given

IC50 | SMILES
11.5 nM | N/C(=N/C(=O)NCCNC(=O)c1ccccc1)NCCC[C@@H](NC(=O)C(c1ccccc1)c1ccccc1)C(=O)NCc1ccc(O)cc1
95.5 nM | N/C(=N/C(=O)NCCNC(=O)Cc1ccccc1)NCCC[C@@H](NC(=O)C(c1ccccc1)c1ccccc1)C(=O)NCc1ccc(O)cc1
14.5 nM | CC(C)(C)C(=O)NCCNC(=O)/N=C(/N)NCCC[C@@H](NC(=O)C(c1ccccc1)c1ccccc1)C(=O)NCc1ccc(O)cc1
0.0794 nM | N/C(=N/C(=O)NCCNC(=O)CCl)NCCC[C@@H](NC(=O)C(c1ccccc1)c1ccccc1)C(=O)NCc1ccc(O)cc1
0.0912 nM | N/C(=N/C(=O)NCCNC(=O)CO)NCCC[C@@H](NC(=O)C(c1ccccc1)c1ccccc1)C(=O)NCc1ccc(O)cc1
0.24 nM | N/C(=N/C(=O)NCCNC(=O)C1CCC1)NCCC[C@@H](NC(=O)C(c1ccccc1)c1ccccc1)C(=O)NCc1ccc(O)cc1
525 nM | N/C(=N/C(=O)NCCNC(=O)C(c1ccccc1)c1ccccc1)NCCC[C@@H](NC(=O)C(c1ccccc1)c1ccccc1)C(=O)NCc1ccc(O)cc1
0.24 nM | N/C(=N/C(=O)NCCNC(=O)C1CC1)NCCC[C@@H](NC(=O)C(c1ccccc1)c1ccccc1)C(=O)NCc1ccc(O)cc1
30.9 nM | N/C(=N/C(=O)NCCNC(=O)C1CCCCC1)NCCC[C@@H](NC(=O)C(c1ccccc1)c1ccccc1)C(=O)NCc1ccc(O)cc1
0.0617 nM | N/C(=N/C(=O)NCCNC(=O)CBr)NCCC[C@@H](NC(=O)C(c1ccccc1)c1ccccc1)C(=O)NCc1ccc(O)cc1
0.186 nM | C=CC(=O)NCCNC(=O)/N=C(/N)NCCC[C@@H](NC(=O)C(c1ccccc1)c1ccccc1)C(=O)NCc1ccc(O)cc1
16.2 nM | N/C(=N/C(=O)NCCNC(=O)c1ccc(F)cc1)NCCC[C@@H](NC(=O)C(c1ccccc1)c1ccccc1)C(=O)NCc1ccc(O)cc1
7.59 nM | N/C(=N/C(=O)NCCNC(=O)C1CCCC1)NCCC[C@@H](NC(=O)C(c1ccccc1)c1ccccc1)C(=O)NCc1ccc(O)cc1
0.589 nM | N/C(=N/C(=O)NCCNC(=O)CCCl)NCCC[C@@H](NC(=O)C(c1ccccc1)c1ccccc1)C(=O)NCc1ccc(O)cc1
0.0661 nM | CC(C)C(=O)NCCNC(=O)/N=C(/N)NCCC[C@@H](NC(=O)C(c1ccccc1)c1ccccc1)C(=O)NCc1ccc(O)cc1
0.11 nM | N/C(=N/C(=O)NCCNC(=O)C(F)F)NCCC[C@@H](NC(=O)C(c1ccccc1)c1ccccc1)C(=O)NCc1ccc(O)cc1
0.126 nM | N/C(=N/C(=O)NCCNC(=O)C(F)(F)F)NCCC[C@@H](NC(=O)C(c1ccccc1)c1ccccc1)C(=O)NCc1ccc(O)cc1

SMILES | IC50
N/C(=N/C(=O)NCCNC(=O)CF)NCCC[C@@H](NC(=O)C(c1ccccc1)c1ccccc1)C(=O)NCc1ccc(O)cc1 | 0.055 nM

Biological target: T2, Neuropeptide Y receptor type 1 (Homo sapiens) (UniProt P25929)
T2 sequence (whole entry): T1 sequence (P25929 whole entry)
Settings: HEL, filed as antagonist, time 15.0 min

pKb | SMILES
8.82 | N/C(=N/C(=O)NCCNC(=O)c1ccccc1)NCCC[C@@H](NC(=O)C(c1ccccc1)c1ccccc1)C(=O)NCc1ccc(O)cc1
7.9 | N/C(=N/C(=O)NCCNC(=O)Cc1ccccc1)NCCC[C@@H](NC(=O)C(c1ccccc1)c1ccccc1)C(=O)NCc1ccc(O)cc1
8.71 | CC(C)(C)C(=O)NCCNC(=O)/N=C(/N)NCCC[C@@H](NC(=O)C(c1ccccc1)c1ccccc1)C(=O)NCc1ccc(O)cc1
10.9 | N/C(=N/C(=O)NCCNC(=O)CO)NCCC[C@@H](NC(=O)C(c1ccccc1)c1ccccc1)C(=O)NCc1ccc(O)cc1
10.5 | N/C(=N/C(=O)NCCNC(=O)C1CCC1)NCCC[C@@H](NC(=O)C(c1ccccc1)c1ccccc1)C(=O)NCc1ccc(O)cc1
7.16 | N/C(=N/C(=O)NCCNC(=O)C(c1ccccc1)c1ccccc1)NCCC[C@@H](NC(=O)C(c1ccccc1)c1ccccc1)C(=O)NCc1ccc(O)cc1
10.5 | N/C(=N/C(=O)NCCNC(=O)C1CC1)NCCC[C@@H](NC(=O)C(c1ccccc1)c1ccccc1)C(=O)NCc1ccc(O)cc1
8.39 | N/C(=N/C(=O)NCCNC(=O)C1CCCCC1)NCCC[C@@H](NC(=O)C(c1ccccc1)c1ccccc1)C(=O)NCc1ccc(O)cc1
11.1 | N/C(=N/C(=O)NCCNC(=O)CBr)NCCC[C@@H](NC(=O)C(c1ccccc1)c1ccccc1)C(=O)NCc1ccc(O)cc1
10.6 | C=CC(=O)NCCNC(=O)/N=C(/N)NCCC[C@@H](NC(=O)C(c1ccccc1)c1ccccc1)C(=O)NCc1ccc(O)cc1
8.67 | N/C(=N/C(=O)NCCNC(=O)c1ccc(F)cc1)NCCC[C@@H](NC(=O)C(c1ccccc1)c1ccccc1)C(=O)NCc1ccc(O)cc1
9 | N/C(=N/C(=O)NCCNC(=O)C1CCCC1)NCCC[C@@H](NC(=O)C(c1ccccc1)c1ccccc1)C(=O)NCc1ccc(O)cc1
11.1 | CC(C)C(=O)NCCNC(=O)/N=C(/N)NCCC[C@@H](NC(=O)C(c1ccccc1)c1ccccc1)C(=O)NCc1ccc(O)cc1
